Measurements published in patent US20140031217A1, “HERBICIDAL COMPOSITIONS COMPRISING 4-AMINO-3-CHLORO-5-FLUORO-6-(4-CHLORO-2-FLUORO-3-METHOXYPHENYL)PYRIDINE-2-CARBOXYLIC ACID OR A DERIVATIVE THEREOF AND AUXIN TRANSPORT INHIBITORS” (DOW AGROSCIENCES LLC, priority 2012, published 2014).

Key:
BRAPP = experiment: Postemergence foliar-applied greenhouse weed control, BRAPP; type: in vivo, Brachiaria platyphylla (Griseb.) Nash
Source text: (§1) Seeds or nutlets of the desired test plant species were planted in a soil matrix prepared by mixing a loam or sandy loam soil (e.g., 28.6 percent silt, 18.8 percent clay, and 52.6 percent sand, with a pH of about 5.8 and an organic matter content of about 1.8 percent) and calcareous grit in an 80 to 20 ratio. The soil matrix was contained in plastic pots with a volume of 1 quart and a surface area of 83.6 square centimeters (cm^2). When required to ensure good germination and healthy plants, a fungicide treatment and/or other chemical or physical treatment was applied. The plants were grown for 8-22 days in a greenhouse with an approximate 14 h photoperiod which was maintained at about 29° C. during the day and 26° C. during the night. Nutrients (Peters Excel® 15-5-15 5-Ca 2-Mg and iron chelate) were applied in the irrigation solution as needed and water was added on a regular basis. Supplemental lighting was provided with overhead metal halide 1000-Watt lamps as necessary. The plants were employed for testing when they reached the first through fourth true leaf stage.
(§2) Treatments consisted of the acid or esters of 4-amino-3-chloro-5-fluoro-6-(4-chloro-2-fluoro-3-methoxy-phenyl) pyridine-2-carboxylic acid (Compound A), each formulated as an SC (suspension concentrate), and various herbicidal components alone and in combination. Forms of compound A were applied on an acid equivalent basis.
(§3) Other herbicidal components were applied on an active ingredient basis and included auxin transport inhibiting (ATI) herbicides chlorflurenol (technical material), chlorflurenol-methyl (technical material), diflufenzopyr (technical material), diflufenzopyr sodium (technical material), flurenol-methyl (technical material) and naptalam (technical material).
(§4) Treatment requirements were calculated based upon the rates being tested, the concentration of active ingredient or acid equivalent in the formulation, and a 12 mL application volume at a rate of 187 L/ha.
(§5) For treatments comprised of formulated and technical compounds, weighed amounts of the technical materials were placed individually in 25 mL glass vials and dissolved in a volume of 97:3 v/v acetone/DMSO to obtain 12× stock solutions, and measured amounts of the formulated compounds were placed individually in 25 mL glass vials and diluted in a volume of 1.5% (v/v) crop oil concentrate or water to obtain 12× stock solutions. […] Application solutions were prepared by adding an appropriate amount of each stock solution (e.g., 1 mL) and diluted to the appropriate final concentrations with the addition of an appropriate amount of an aqueous mixture of 1.5% (v/v) crop oil concentrate so that the final spray solutions contained 1.25% (v/v) crop oil concentrate. When required, additional water and/or 97:3 v/v acetone/DMSO was added to individual application solutions so that the final acetone and DMSO concentrations of the application solutions being compared were 8.1% and 0.25%, respectively.
(§6) All stock solutions and applications solutions were visually inspected for compound compatibility prior to application. Spray solutions were applied to the plant material with an overhead Mandel track sprayer equipped with an 8002E nozzle calibrated to deliver 187 L/ha over an application area of 0.503 m^2 at a spray height of 18 to 20 inches (46 to 50 cm) above average plant canopy height. Control plants were sprayed in the same manner with the solvent blank.
(§7) The treated plants and control plants were placed in a greenhouse as described above and watered by sub-irrigation to prevent wash-off of the test compounds. After approximately 3 weeks, the condition of the test plants as compared with that of the untreated plants was determined visually and scored on a scale of 0 to 100 percent where 0 corresponds to no injury or growth inhibition and 100 corresponds to complete kill. […]

DIGSA = experiment: Postemergence foliar-applied greenhouse weed control, DIGSA; type: in vivo, Digitaria sanguinalis (L.) Scop.; settings: 21 DAA
Source text: as §1, §2, §3, §4, §5, §6, §7

ECHCO = experiment: Postemergence foliar-applied greenhouse weed control, ECHCO; type: in vivo, Echinochloa colona (L.) Link; settings: 21 DAA
Source text: as §1, §2, §3, §4, §5, §6, §7

IPOHE = experiment: Postemergence foliar-applied greenhouse weed control, IPOHE; type: in vivo, Ipomoea hederacea Jacq.
Source text: as §1, §2, §3, §4, §5, §6, §7

LEFCH = experiment: Postemergence foliar-applied greenhouse weed control, LEFCH; type: in vivo, Leptochloa chinensis (L.) Nees
Source text: as §1, §2, §3, §4, §5, §6, §7

CYPIR = experiment: Postemergence foliar-applied greenhouse weed control, CYPIR; type: in vivo, Cyperus iria L.; settings: 22 DAA
Source text: as §1, §2, §3, §4, §5, §6, §7

CYPRO = experiment: In-water applied (paddy) greenhouse weed control, CYPRO; type: in vivo, Cyperus rotundus L.; settings: 19 DAA
Protocol: (§8) Weed seeds or nutlets of the desired test plant species were planted in puddled soil (mud) prepared by mixing a shredded, non-sterilized mineral soil (50.5 percent silt, 25.5 percent clay, and 24 percent sand, with a pH of about 7.6 and an organic matter content of about 2.9 percent) and water at a 1:1 volumetric ratio. The prepared mud was dispensed in 365 mL aliquots into 16-ounce (oz.) non-perforated plastic pots with a surface area of 86.59 square centimeters (cm^2) leaving a headspace of 3 centimeters (cm) in each pot. Mud was allowed to dry overnight prior to planting or transplanting. Rice seeds were planted in Sun Gro MetroMix® 306 planting mixture, which typically has a pH of 6.0 to 6.8 and an organic matter content of about 30 percent, in plastic plug trays. Seedlings at the second or third leaf stage of growth were transplanted into 840 mL of mud contained in 32-oz. non-perforated plastic pots with a surface area of 86.59 cm^2 4 days prior to herbicide application. The paddy was created by filling the headspace of the pots with 2.5 to 3 cm of water. When required to ensure good germination and healthy plants, a fungicide treatment and/or other chemical or physical treatment was applied. The plants were grown for 4-22 days in a greenhouse with an approximate 14 h photoperiod which was maintained at about 29′C during the day and 26° C. during the night. Nutrients were added as Osmocote® (19:6:12, N:P:K+minor nutrients) at 2 g per 16-oz. pot and 4 g per 960-mL 32-oz. pot. Water was added on a regular basis to maintain the paddy flood, and supplemental lighting was provided with overhead metal halide 1000-Watt lamps as necessary. The plants were employed for testing when they reached the second or third true leaf stage.
(§9) Treatments consisted of the acid or esters of 4-amino-3-chloro-5-fluoro-6-(4-chloro-2-fluoro-3-methoxy-phenyl)pyridine-2-carboxylic acid (compound A) each formulated as an SC and various herbicidal components alone and in combination. Forms of compound A were applied on an acid equivalent basis.
(§10) Other herbicidal components were applied on an active ingredient basis and included auxin transport inhibiting (ATI) herbicides chlorflurenol-methyl (technical material), chlorflurenol (technical material), diflufenzopyr (technical material), dilfufenzopyr sodium (technical material), flurenol-methyl (technical material,) and naptalam (technical material).
(§11) Treatment requirements for each compound or herbicidal component were calculated based upon the rates being tested, the concentration of active ingredient or acid equivalent in the formulation, an application volume of 2 mL per component per pot, and an application area of 86.59 cm^2 per pot.
(§12) For formulated compounds, a measured amount was placed in an individual 100 or 200 mL glass vial and was dissolved in a volume of 1.25% (v/v) Agri-Dex® crop oil concentrate to obtain application solutions.
(§13) For technical grade compounds, a weighed amount was placed in an individual 100 to 200 mL glass vial and was dissolved in a volume of acetone to obtain concentrated stock solutions. […] The concentrated stock solutions obtained were diluted with an equivalent volume of an aqueous mixture containing 2.5% (v/v) crop oil concentrate so that the final application solutions contained 1.25% (v/v) crop oil concentrate.
(§14) Applications were made by injecting with a pipetter appropriate amounts of the application solutions, individually and sequentially, into the aqueous layer of the paddy. Control plants were treated in the same manner with the solvent blank. Applications were made so that all treated plant material received the same concentrations of acetone and crop oil concentrate.
(§15) The treated plants and control plants were placed in a greenhouse as described above and water was added as needed to maintain a paddy flood. […]

ECHCG = experiment: In-water applied (paddy) greenhouse weed control, ECHCG; type: in vivo, Echinochloa crusgalli (L.) Beauv.; settings: 19 DAA
Protocol: as §8, §9, §10, §11, §12, §13, §14, §15

FIMMI = experiment: In-water applied (paddy) greenhouse weed control, FIMMI; type: in vivo, Fimbristylis miliacea (L.) Vahl; settings: 19 DAA
Protocol: as §8, §9, §10, §11, §12, §13, §14, §15

ECHOR = experiment: In-water applied (paddy) greenhouse weed control, ECHOR; type: in vivo, Echinochloa oryzoides (Ard.) Fritsch; settings: 19 DAA
Protocol: as §8, §9, §10, §11, §12, §13, §14, §15

Question: C/C(=N\NC(=O)Nc1cc(F)cc(F)c1)c1ncccc1C(=O)O [Diflufenzopyr, 2-{(E)-1-[4-(3,5-difluorophenyl)-semicarbazono]-ethyl}nicotinic acid] was tested. Which “Visual Weed Control (%) Obs” value (BRAPP; 21 DAA, 8.75 gai/ha) did it give?
Answer: The value was 0%.

Question: And the “Visual Weed Control (%) Obs” value (BRAPP; 21 DAA, 17.5 gai/ha)?
Answer: Its value is 40%.

Question: And the “Visual Weed Control (%) Obs” value (BRAPP; 21 DAA, 35 gai/ha)?
Answer: Its value is 80%.

Question: What about the “Visual Weed Control (%) Obs” value (DIGSA; 17.5 gai/ha) of the same compound?
Answer: Its value is 10%.

Question: And the “Visual Weed Control (%) Obs” value (DIGSA; 35 gai/ha)?
Answer: Its value is 20%.

Question: What about the “Visual Weed Control (%) Obs” value (ECHCO; 8.75 gai/ha) of the same compound?
Answer: The value was 30%.

Question: And the “Visual Weed Control (%) Obs” value (ECHCO; 17.5 gai/ha)?
Answer: Its value is 30%.

Question: And the “Visual Weed Control (%) Obs” value (ECHCO; 35 gai/ha)?
Answer: The value was 40%.

Question: What about the “Visual Weed Control (%) Obs” value (IPOHE; 21 DAA, 8.75 gai/ha) of the same compound?
Answer: Its value is 75%.

Question: What about the “Visual Weed Control (%) Obs” value (IPOHE; 21 DAA, 17.5 gai/ha) of the same compound?
Answer: Its value is 70%.

Question: And the “Visual Weed Control (%) Obs” value (LEFCH; 21 DAA, 8.75 gai/ha)?
Answer: Its value is 0%.

Question: What about the “Visual Weed Control (%) Obs” value (LEFCH; 21 DAA, 17.5 gai/ha) of the same compound?
Answer: The value was 10%.

Question: Which “Visual Weed Control (%) Obs” value (BRAPP; 22 DAA, 68.75 gai/ha) does the source give for COC(=O)C1(O)c2ccccc2-c2ccccc21 [Flurenol-methyl] here?
Answer: The value was 0%.

Question: What about the “Visual Weed Control (%) Obs” value (BRAPP; 22 DAA, 137.5 gai/ha) of the same compound?
Answer: Its value is 0%.

Question: And the “Visual Weed Control (%) Obs” value (BRAPP; 22 DAA, 275 gai/ha)?
Answer: Its value is 30%.

Question: What about the “Visual Weed Control (%) Obs” value (CYPIR; 68.75 gai/ha) of the same compound?
Answer: Its value is 0%.

Question: What about the “Visual Weed Control (%) Obs” value (CYPIR; 137.5 gai/ha) of the same compound?
Answer: The value was 0%.

Question: And the “Visual Weed Control (%) Obs” value (CYPIR; 275 gai/ha)?
Answer: The value was 60%.

Question: What about the “Visual Weed Control (%) Obs” value (CYPRO; 68.75 gai/ha) of the same compound?
Answer: The value was 0%.

Question: And the “Visual Weed Control (%) Obs” value (CYPRO; 137.5 gai/ha)?
Answer: Its value is 0%.

Question: What about the “Visual Weed Control (%) Obs” value (ECHCG; 68.75 gai/ha) of the same compound?
Answer: Its value is 0%.

Question: What about the “Visual Weed Control (%) Obs” value (ECHCG; 137.5 gai/ha) of the same compound?
Answer: The value was 0%.

Question: What about the “Visual Weed Control (%) Obs” value (ECHCG; 275 gai/ha) of the same compound?
Answer: The value was 0%.

Question: And the “Visual Weed Control (%) Obs” value (FIMMI; 68.75 gai/ha)?
Answer: The value was 0%.

Question: And the “Visual Weed Control (%) Obs” value (FIMMI; 137.5 gai/ha)?
Answer: The value was 0%.

Question: And the “Visual Weed Control (%) Obs” value (FIMMI; 275 gai/ha)?
Answer: Its value is 20%.

Question: O=C(O)c1ccccc1C(=O)Nc1cccc2ccccc12 [Naptalam, 2-[(1-naphthalenylamino)carbonyl]benzoic acid, reference compound] was tested. Which “Visual Weed Control (%) Obs” value (BRAPP; 22 DAA, 30 gai/ha) did it give?
Answer: Its value is 0%.

Question: What about the “Visual Weed Control (%) Obs” value (BRAPP; 22 DAA, 60 gai/ha) of the same compound?
Answer: The value was 0%.

Question: What about the “Visual Weed Control (%) Obs” value (BRAPP; 22 DAA, 120 gai/ha) of the same compound?
Answer: Its value is 0%.

Question: What about the “Visual Weed Control (%) Obs” value (IPOHE; 22 DAA, 60 gai/ha) of the same compound?
Answer: The value was 15%.

Question: And the “Visual Weed Control (%) Obs” value (IPOHE; 22 DAA, 120 gai/ha)?
Answer: Its value is 15%.

Question: What about the “Visual Weed Control (%) Obs” value (LEFCH; 22 DAA, 60 gai/ha) of the same compound?
Answer: Its value is 15%.

Question: What about the “Visual Weed Control (%) Obs” value (LEFCH; 22 DAA, 120 gai/ha) of the same compound?
Answer: Its value is 15%.

Question: And the “Visual Weed Control (%) Obs” value (CYPRO; 330 gai/ha)?
Answer: Its value is 0%.

Question: What about the “Visual Weed Control (%) Obs” value (CYPRO; 1320 gai/ha) of the same compound?
Answer: The value was 50%.

Question: What about the “Visual Weed Control (%) Obs” value (ECHCG; 330 gai/ha) of the same compound?
Answer: The value was 20%.

Question: And the “Visual Weed Control (%) Obs” value (ECHOR; 330 gai/ha)?
Answer: The value was 20%.

Question: And the “Visual Weed Control (%) Obs” value (ECHOR; 660 gai/ha)?
Answer: Its value is 25%.

Question: And the “Visual Weed Control (%) Obs” value (ECHOR; 1320 gai/ha)?
Answer: The value was 30%.

Question: And the “Visual Weed Control (%) Obs” value (FIMMI; 330 gai/ha)?
Answer: Its value is 50%.
